In brackets after ≈: the same amount, converted by molar mass. Numbered stars: 1 amine (or outer) side, 2 acyl side, 3 side chain; on linkers, the order of the positions; unused ones are H or OH. Square brackets hold non-standard residues; d marks the D form. Peptide text beside a SMILES is read from it. * marks the point of attachment. X1 = COc1cccc2[nH]c(C)c(C[C@H](N[*:1])C(=O)[*:2])c12; dAla(ψthiazole) = C[C@@H](N[*:1])c1nc(C(=O)[*:2])cs1; Trp(4-OMe) = COc1cccc2[nH]cc(C[CH](N)C(=O)O)c12; X2 = O=C(c1csc([C@@H](CO)N[*:1])n1)[*:2]; GlyΨ(Thz) = O=C(c1csc(CN[*:1])n1)[*:2]; dAbu = CC[C@@H](N)C(=O)O; Cbz = O=C(OCc1ccccc1)*; Dha = C=C(N)C(=O)O; Sar = CNCC(=O)O
Columns and labels:
[1] = tested on: p27-GFP (clone H15GFP-p27, HeLa-cell line; cervix-carcinoma); experiment: GFP-fluorescence per FACS in clone H15GFP-p27; format: cell-based, human; conditions: GFP-fluorescence per FACS after 24 h incubation, 500 ng/ml
Description: Human p27cDNA (in plasmid vector CS2+) was digested with EcoR1 and BamH1, and the resulting fragment was ligated after gel purification into the vector pEGFP-N1 (Clontech) that was cut with the same restriction enzymes. Thus, a […] fusion with the GFP as contained in the pEGFP-vector was generated. The plasmid was then transfected into Hela cells, and, following selection of the cells with kanamycin, cellular clones were isolated which had the plasmid integrated stably into their chromosome. The expression of the p27EGFP proteins was confirmed using Western blots and immune precipitations for both p27 and GFP.
(§1) The following table summarizes the effects of argyrin-derivatives A to H on two cancer cell lines, H15 (cervix carcinoma) and SW-480 (colon cancer). In order to test the efficacy, a p27-GFP-clone was used.

H15 (cervix carcinoma) = experiment: MIC (visual), serial dilution, H15; format: cell-based, human; conditions: minimal concentration of a serial dilution exhibiting a visual effect
Description: as §1

[2] = tested on: SW-480 (colon cancer cell line); experiment: MTT-test proliferation of SW-480; format: cell-based, human; conditions: for IC-50 SW-480: half-maximal inhibition of proliferation
Experimental: (§2) MTT assays were done as previously described (Sasse, F. et al. Argyrins, immunosuppressive cyclic peptides from myxobacteria. I. Production, isolation, physico-chemical and biological properties. J Antibiot (Tokyo) 55, 543-51 (2002)). TUNEL staining of tissue sections was performed on 10 micrometer sections which were deparafinised and treated as recommended by the manufacturer. (In Situ Cell Death Detection Kit, Fluorescein; ROCHE, Cat #11 684 795 910). Flow cytometric analysis of cultured cells was done using a Becton Dickinson fluorescence cytometer as previously described (Malek, N. P. et al. A mouse knock-in model exposes sequential proteolytic pathways that regulate p27^Kip1 in G1 and S phase. Nature 413, 323-7 (2001)). Analysis of the distribution of cells in the cell cycle and the sub-G1 fraction was done using Cell Quest software. A histone-associated-DNA-fragments ELISA was used to determine the number of apoptotic cells according to manufacturers instructions (Roche #11 774425001).

SW-480 (colon cancer) = experiment: MIC (visual), serial dilution, SW-480; format: cell-based, human; conditions: minimal concentration of a serial dilution exhibiting a visual effect
Description: as §1

[3] = tested on: mouse embryonic fibroblasts from p27^kip1 knockout mice; experiment: Apoptosis (sub-G1 fraction) by flow cytometry in p27 knockout MEF; format: cell-based; conditions: sub G1 fraction
Description: (§3) Next the inventors tested whether the stabilization of p27 was indeed required for the apoptosis inducing function of Argyrin A or was merely a consequence of proteasome inhibition. For this the inventors treated immortalized mouse embryonic fibroblasts from p27^kip1 wildtype or knockout mice with Argyrin A or the proteasome inhibitor bortezomib and assayed cell cycle distribution and apoptosis by flow cytometry. […] These differences in sensitivity in response to Argyrin A treatment were not due to differences in the accumulation of other proteasomal substrates in p27 wildtype and knockout cells as p53 and p21 levels increased in both cell lines in response to Argyrin A (FIG. 6B). To extend this observation to human cancer cells the inventors reduced the levels of p27^kip1 in HeLa cells using p27^kip1 specific siRNA.
(§4) The results shown are the average numbers for six independent experiments. b+d) Wildtype (b) and p27 knockout (d) MEF were treated with Argyrin A or transfected with siRNAs specific for the β1, β2 or β5 subunit of the proteasome for 24 hours. The graphs show the remaining catalytic activity of the different proteasome subunits after Argyrin A or siRNA treatment compared to an untreated control (n=3). The western blots show the expression of the β1, β2 or β5 subunit of the proteasome in proliferating cells and after treatment with siRNAs for a representative experiment. c+e) Flow cytometric measurements of the number of apoptotic cells (sub-G1 fraction) after Argyrin A or siRNA treatment in wildtype (c) or p27 knockout (E) MEF. f) HeLa cells were treated with Argyrin A or siRNA against p27 or Argyrin A and siRNA against p27 for either 24 or 48 hours.
as §2

[4] = tested on: mouse embryonic fibroblasts from p27^kip1 wildtype mice; experiment: Apoptosis (sub-G1 fraction) by flow cytometry in p27 wildtype MEF; format: cell-based; conditions: sub G1 fraction
Description: as §3, §4, §2

`C=C1NC(=O)[C@@H](CC)NC(=O)CNC(=O)[C@H](Cc2c[nH]c3cccc(OC)c23)NC(=O)[C@H](Cc2c[nH]c3ccccc23)NC(=O)c2csc(n2)[C@@H](C)NC(=O)CN(C)C1=O` [Argyrin B, argyrin B] (cyclo([Dha][Sar][dAla(ψthiazole)]W[Trp(4-OMe)]G[dAbu])) was tested, and the “Mean of FSC-H (Log) H15 p27-GFP-clone” value [1] was 7.60, the “MIC (visual) H15” value (H15 (cervix carcinoma)) was 12 µg/mL (≈ 14.3 µM) and the IC50 ([2]; Homo sapiens, SW480, half-maximal inhibition of proliferation, read-out: IC-50 SW-480) was about 0.05 µg/mL (≈ 0.0596 µM). For the same compound, the “MIC (visual) SW-480” value (SW-480 (colon cancer)) was 12 µg/mL (≈ 14.3 µM).

For `C=C1NC(=O)[C@@H](C)NC(=O)CNC(=O)[C@H](Cc2c(C)[nH]c3cccc(OC)c23)NC(=O)[C@H](Cc2c[nH]c3ccccc23)NC(=O)c2csc(n2)[C@@H](C)NC(=O)CN(C)C1=O` [Argyrin C] (cyclo(W[X1]G[dA][Dha][Sar][dAla(ψthiazole)])), the “Mean of FSC-H (Log) H15 p27-GFP-clone” value [1] was 7.36, the “MIC (visual) H15” value (H15 (cervix carcinoma)) was 37 µg/mL (≈ 44.1 µM) and the “IC-50 SW-480” value [2] was “Ca. 0.05 μg/ml”. For the same compound, the “MIC (visual) SW-480” value (SW-480 (colon cancer)) was 37 µg/mL (≈ 44.1 µM).

In the case of `C=C1NC(=O)[C@@H](CC)NC(=O)CNC(=O)[C@H](Cc2c(C)[nH]c3cccc(OC)c23)NC(=O)[C@H](Cc2c[nH]c3ccccc23)NC(=O)c2csc(n2)[C@@H](C)NC(=O)CN(C)C1=O` [Argyrin D] (cyclo(W[X1]G[dAbu][Dha][Sar][dAla(ψthiazole)])), the “Mean of FSC-H (Log) H15 p27-GFP-clone” value [1] is reported as 7.69, the “MIC (visual) H15” value (H15 (cervix carcinoma)) is reported as 12 µg/mL (≈ 14.1 µM) and the “IC-50 SW-480” value [2] is reported as “Ca. 0.05 μg/ml”. For the same compound, the “MIC (visual) SW-480” value (SW-480 (colon cancer)) was 37 µg/mL (≈ 43.4 µM).

For `C=C1NC(=O)[C@@H](C)NC(=O)CNC(=O)[C@H](Cc2c[nH]c3cccc(OC)c23)NC(=O)[C@H](Cc2c[nH]c3ccccc23)NC(=O)c2csc(n2)[C@@H](CO)NC(=O)CN(C)C1=O` [Argyrin F, argyrin F] (cyclo([Dha][Sar][X2]W[Trp(4-OMe)]G[dA])), the “Mean of FSC-H (Log) H15 p27-GFP-clone” value [1] was 11.24, the “MIC (visual) H15” value (H15 (cervix carcinoma)) was 0.5 µg/mL (≈ 0.595 µM) and the “IC-50 SW-480” value [2] was 0.05 µg/mL. The “MIC (visual) SW-480” value (SW-480 (colon cancer)) was 0.2 µg/mL (≈ 0.238 µM).

`C=C1NC(=O)C(C)NC(=O)CNC(=O)C(Cc2c[nH]c3cccc(OC)c23)NC(=O)C(Cc2c[nH]c3ccccc23)NC(=O)c2csc(n2)CNC(=O)CN(C)C1=O` (stereo not drawn) [Argyrin H] (cyclo([Dha][Sar][GlyΨ(Thz)]W[Trp(4-OMe)]GA); configuration not given here) was tested, and the “MIC (visual) H15” value (H15 (cervix carcinoma)) was 37 µg/mL (≈ 45.6 µM), the “IC-50 SW-480” value [2] was “Ca. 0.5 μg/ml” and the “MIC (visual) SW-480” value (SW-480 (colon cancer)) was 37 µg/mL (≈ 45.6 µM).

In the case of `CC(C)C[C@@H](C=O)NC(=O)[C@H](CC(C)C)NC(=O)[C@H](CC(C)C)NC(=O)OCc1ccccc1` [MG132] (Cbz-Leu-Leu-Leu-aldehyde), the “apoptosis in p27 knockout MEF” value [3] is reported as “same response” and the “apoptosis in p27 wildtype MEF” value [4] is reported as “same response”.

— US8217071B2, “Use of inhibitors of the degradation of p27, in particular Argyrin and derivatives thereof, for the treatment of proliferative diseases” (Helmholtz Zentrum für Infektionsforschung GmbH, priority 2007, dated 2012)
